Consider 1 compound from ChEMBL document CHEMBL1157384, “Apratoxin D, a potent cytotoxic cyclodepsipeptide from papua new guinea collections of the marine cyanobacteria Lyngbya majuscula and Lyngbya sordida” (J Nat Prod, 2008).

What is called IC50 is the point on the concentration scale where inhibition reaches its midpoint.

This experiment deals with NCI-H460. As to the kind of experiment: Cytotoxicity against human H460 cells after 48 hrs by MTT assay. Format: functional, cell-based. As to conditions: NCI-H460, 48 h.

In turn, `CC[C@H](C)[C@H]1C(=O)N2CCC[C@H]2C(=O)O[C@H]([C@@H](C)CC(C)(C)C)C[C@@H](C)C[C@H](O)[C@H](C)C2=N[C@@H](/C=C(\C)C(=O)N[C@@H](Cc3ccc(OC)cc3)C(=O)N(C)[C@@H](C)C(=O)N1C)CS2` [APRATOXIN D] displayed an IC50 of 2.6 nM.
